Values joined by “and” are separate entries in the source; they are usually repeats but may differ in a detail not shown here. Equal values may be shown once.
Tests used:
[1] = system: primary human UCs; experiment: SR1 treatment of primary human urothelial cells (UCs) in vitro, AhR/Ki-67 co-staining and manual counting; format: cell-based; details: for peak number of nAhR+UCs: D7, means±SE
Experimental: SR1 Treatment of UCs in vitro Equivalent numbers of primary human UCs were treated once with SR1 (150 nM, 200 nM, 250 nM, or untreated) and allowed to grow in culture for 13 days. […] An assortment of organ specific stem cells initially maintain a high nucleus/cytoplasm ratio which gradually decreases as the cell differentiates.

[2] = system: regenerated bladder tissue; experiment: Regenerated bladder tissue muscle content (Trichrome) and urothelium width after cystectomy and POC scaffold augmentation; format: in vivo, nude rats; details: 10 weeks post-augmentation, means±SE
Experimental: SR1 Induces Bladder Tissue Regeneration in vivo—In the following in vivo studies, nude rats underwent an approximate 60-70% bladder cystectomy and were augmented with a POC scaffold and then: 1) instilled with saline (Saline); 2) instilled with 300 nM SR1 (SR1:1×/week for 2 weeks); or 3) seeded with human MSC/CD34+HSCs (Cell-Seeded). Animals were sacrificed 10 weeks post-augmentation. The inventors have developed, characterized, and successfully utilized CBBs (POC) in bladder regenerative settings over the last 10 years. The inventors' established human MSC/CD34+HSC seeded POC scaffold bladder augmentation model was utilized in this study to directly compare specific regenerative bladder biological metrics against SR1 treated animals to determine whether SR1 could be used in lieu of MSCs and CD34+HSCs for bladder tissue regeneration. Muscle to collagen ratios are indicative of overall bladder tissue regeneration. […] Normal bladder tissue has an approximate 1:1 to muscle to collagen. There was no statistical difference with regards to muscle regeneration between the two groups. […] This included abnormal voiding, incontinence and subsequent infection, bladder distension, ureteral or renal dysfunction, and […]. […]

[3] = system: regenerated bladder tissue; experiment: Bladder tissue vascularization and peripheral nerve regeneration in vivo (IF staining); design: species or system nude rats; details: 10 weeks post-augmentation
Experimental: SR1 Induces Bladder Tissue Regeneration in vivo—In the following in vivo studies, nude rats underwent an approximate 60-70% bladder cystectomy and were augmented with a POC scaffold and then: 1) instilled with saline (Saline); 2) instilled with 300 nM SR1 (SR1:1×/week for 2 weeks); or 3) seeded with human MSC/CD34+HSCs (Cell-Seeded). Animals were sacrificed 10 weeks post-augmentation. The inventors have developed, characterized, and successfully utilized CBBs (POC) in bladder regenerative settings over the last 10 years. The inventors' established human MSC/CD34+HSC seeded POC scaffold bladder augmentation model was utilized in this study to directly compare specific regenerative bladder biological metrics against SR1 treated animals to determine whether SR1 could be used in lieu of MSCs and CD34+HSCs for bladder tissue regeneration. Bladder instillation of SR1 promoted vascularization of augmented bladders along the periphery and core of grafts. […] The level of tissue vascularization may be increased by changing the concentration of SR1 instilled and/or the dosing regimen.

[4] = system: rat bladders; experiment: Rat bladder urodynamic studies (UDS); format: in vivo, nude rats; details: for bladder compliance: compliant >60%; for leak point pressure (LPP): normal rat ~40
Experimental: SR1 Induces Bladder Tissue Regeneration in vivo—In the following in vivo studies, nude rats underwent an approximate 60-70% bladder cystectomy and were augmented with a POC scaffold and then: 1) instilled with saline (Saline); 2) instilled with 300 nM SR1 (SR1:1×/week for 2 weeks); or 3) seeded with human MSC/CD34+HSCs (Cell-Seeded). Animals were sacrificed 10 weeks post-augmentation. The inventors have developed, characterized, and successfully utilized CBBs (POC) in bladder regenerative settings over the last 10 years. The inventors' established human MSC/CD34+HSC seeded POC scaffold bladder augmentation model was utilized in this study to directly compare specific regenerative bladder biological metrics against SR1 treated animals to determine whether SR1 could be used in lieu of MSCs and CD34+HSCs for bladder tissue regeneration. Rat Bladder Urodynamic Studies (UDS) Rat bladders were filled with saline until a bladder contraction occurred (pre- and 10 weeks post-augmentation). Bladder pressures rose during the filling until bladder contractions occurred at intravesical pressures of 25-40 cm H2O. Saline instilled animals led to a slight decrease in voiding pressures and decreased bladder compliance (FIG. 4A). SR1 instilled animals led to a decrease in intravesical pressures during voiding from 40 to 25 cm H2O (pre-augmentation to post-augmentation, respectively) with increased bladder compliance. […] With regards to leak point pressures (LPP); Saline, SR1 and Cell-Seeded groups (pre/post aug) were: 39.49±1.35/46.48±2.42; 39.66±0.81/37.1±1.47; 38.6±1.41/35.5±2.40 cm H2O, respectively. Compliance values for the same groups were: 68.77±2.49/39.3±8.55; 69.57±1.95/72.38±3.13; 46.23±12.9/89.59±1.32 percent, respectively. Normal LPP for rat is ˜40 cm H2O and compliant bladders are defined at >60%. Percent bladder capacity at 10 weeks was also measured (FIG. 4B).

[5] = In vitro release profile of SR1 coupled to POC scaffolds, measured by spectroscopy; format: physicochemical
Experimental: SR1 was coupled to POC (poly 1,8 octane diol co-citrate) scaffolds and its in vitro release profile was measured by spectroscopy, based upon the aromatic ring structures contained within SR1 (FIG. 5A). […] For pilot in vivo studies, rats underwent an ˜70% cystectomy followed by augmentation with POC or POC/SR1 (1 mM SR1). POC animals were instilled with saline once at the beginning of the study and all animals were euthanized at 4 weeks post-augmentation. […] Therefore, the inventor concludes that coupling of SR1 to a scaffold, e.g., a solid support, is an effective means of delivery of SR1 to subjects in need thereof.

**Q.** Which “peak number of nAhR+UCs” value ([1]; 150 nM SR1, treated once) does the source give for `CC(C)n1cnc2c(NCCc3ccc(O)cc3)nc(-c3csc4ccccc34)nc21` [SR1, stemregenin 1] here?
**A.** Its value is 159.75±8.44 cells.

**Q.** What about the “peak number of nAhR+UCs” value ([1]; 200 nM SR1, treated once) of the same molecule?
**A.** Its value is 310.75±28.73 cells.

**Q.** What about the “peak number of nAhR+UCs” value ([1]; 250 nM SR1, treated once) of the same molecule?
**A.** The value was 342.75±20.97 cells.

**Q.** What about the “expansion of nAhR+/Ki-67+UCs compared to untreated” value ([1]; D7) of the same molecule?
**A.** Its value is about 6 ×.

**Q.** And the “UCs with higher nucleus/cytoplasm ratios” value ([1]; nAhR+UCs, D7, 200 nM)?
**A.** The value was “modest increase”.

**Q.** And the “muscle content of regenerated bladder tissue” value ([2]; SR1 300 nM instilled 1×/week for 2 weeks)?
**A.** The value was ~50% and 47.00±1.81%.

**Q.** And the urothelium width ([2]; unmanipulated rats 50-70 μm)?
**A.** Its urothelium width is 52.98±2.55 μm.

**Q.** What about the “vascularization of regenerated bladder tissue” value ([3]; means±SE) of the same molecule?
**A.** Its value is 3.60±0.24%.

**Q.** And the “peripheral nerve regeneration (βIII tubulin IF staining)” value ([3]; core and throughout the graft)?
**A.** Its value is “abundance of peripheral nerve regeneration”.

**Q.** And the “intravesical pressure during voiding” value ([4]; 10 weeks post-augmentation)?
**A.** Its value is 25 cm H2O.

**Q.** And the bladder compliance ([4]; 10 weeks post-augmentation)?
**A.** Its bladder compliance is 72.38±3.13%.

**Q.** And the “leak point pressure (LPP)” value ([4]; 10 weeks post-augmentation)?
**A.** The value was 37.1±1.47 cm H2O.

**Q.** What about the “intravesical pressure during voiding” value ([4]; pre-augmentation (baseline)) of the same molecule?
**A.** Its value is 40 cm H2O.

**Q.** What about the bladder compliance ([4]; pre-augmentation (baseline)) of the same molecule?
**A.** Its bladder compliance is 69.57±1.95%.

**Q.** And the “leak point pressure (LPP)” value ([4]; pre-augmentation (baseline))?
**A.** The value was 39.66±0.81 cm H2O.

**Q.** What about the “release profile of SR1 from POC scaffolds” value ([5]; 1 or 2 mM starting concentrations, over 30 days, compared to POC scaffolds in saline) of the same molecule?
**A.** The value was “gradual release”.

**Q.** What about the “cumulative release of SR1 from POC scaffolds, fold higher with 2 mM SR1” value ([5]; 30 day time point, 2 mM versus 1 mM starting concentration) of the same molecule?
**A.** The value was about 1.4 ×.

Source: patent US20250161311A1, “SMALL MOLECULE DIRECTED URINARY BLADDER TISSUE REGENERATION” (Northwestern University, priority 2022, published 2025)
